From patent publication US20220378699A1, “SELF-E[…] EXTRACT” (ISRAEL PLASTICS AND RUBBER CENTER LTD., priority 2019, published 2022)
Read-outs that look alike come from different tables or passages of the source.

Test: In-vivo evaluation: phytocannabinoid serum concentrations after oral administration
Parameters: species or system mice (C57BL/6 J)
Conditions: male, C57BL/6J, mouse, mice, 5 mg CBD/kg, 90 min after dosing, average ± standard error
Method: Animal studies were performed in compliance with the Guide for the Care and Use of Laboratory Animals established by the National Institutes of Health. All procedures and protocols were approved by the Technion Administrative Panel of Laboratory Animal Care (#:IL_050-05-2018).
Subjects 10 adult male mice (C57BL/6 J; The Jackson Laboratory), weighing 20-30 gr were housed in standard laboratory conditions with controlled temperature, humidity, light/dark cycle, ad libitum access to water and regular diet. The experiment was performed at noon, during the light cycle.
CME tea was prepared by pouring 13.3 ml of hot di-ionized water (80° c) over 20 mg of dry SE particles, resulting in CME concentration of […]. The mixture was then genteelly stirred until complete dissolution was observed.
The control solution was prepared by dissolving CME in a solution of 1:1:18 EtOH: Cremophor: PBS. First, 8.5 mg of CME were dissolved in 0.5 ml of EtOH. After that 0.5 ml of Cremophor was added and the mixture was stirred for one hour. Finally, 9 ml of PBS were added, and the mixture was stirred for 30 minutes. Both CME tea and control solution concentrations were calculated to match a dose of 5 mg CBD/kg for a volume intake of 200 μl and an average mouse weight of 25 gr.
For both the control group (5 mice) and the experiment group (5 mice) a dose of 200 μl was orally administered via direct injection to the stomach.
The mice were sacrificed 1.5 hours after oral administration. Blood samples were immediately taken and stored for further examination.
A sample of 600 μl of an extraction solution containing 0.1% v/v acetic acid in a methanol: acetonitrile 1:1 mixture, spiked with 20 ng/ml deuterated internal standards (ISs) was added to 200 μl serum sample. Samples were than vortexed and centrifuged in order to enable protein and cell precipitation. 3 ml of 0.1% v/v acetic acid in water was then added to the supernatants and the sample was loaded onto Agela Cleanert C8 solid phase extraction (SPE) cartridges (500 mg of sorbent, 50 μm particle size). Elution of phytocannabinoids from the columns was done using 2 ml of 0.1% v/v acetic acid in methanol, followed by an evaporation and reconstituted in 100 μl ethanol.
Cannabinoid quantitation was performed as described by P. Berman et al. (Berman et al., 2018).
Phytocannabinoids serum concentrations were evaluated 90 min after oral administration to mice, as detailed above. The control group included a Cremophor EL (castor oil) based emulsion formulation, widely used for its potent solubilizing effect (Comelli F, Giagnoni G, Bettoni I, Colleoni M, 2008). The study group included the F2 tea formulation prepared at 0.62 mg CBD/mL, with both formulations providing 5mg/kg of CBD per body weight.

[1] = CME in Cremophor EL emulsion (1:1:18 EtOH:Cremophor:PBS), read-out: Serum concentration, Control group
[2] = po, F2 tea formulation, read-out: Serum Concentration, Experiment Group

SMILES	concentration at 90 min [1] [ng/mL]	concentration at 90 min [2] [ng/mL]
CCCCCc1cc(O)c2c(c1)OC(C)(CCC=C(C)C)C=C2 (centres unmarked) [CBC, cannabichromene]	247 ± 48	210 ± 72
C=C(C)[C@@H]1CCC(C)=C[C@H]1c1c(O)cc(CCCCC)cc1O [CBD, cannabidiol]	3100 ± 970	1500 ± 130
CCCCCc1cc(O)c2c(c1)OC(C)(C)c1ccc(C)cc1-2 [CBN, cannabinol]	100 ± 5	125 ± 12
CCCCCc1cc(O)c2c(c1)OC(C)(C)[C@@H]1CCC(C)=C[C@@H]21 [THC, (—)-trans-Δ^9-tetrahydrocannabinol]	343 ± 90	115 ± 15
